Assay results: patent publication US20260258035A1, “FIVE-MEMBERED AND SIX-MEMBERED NITROGEN-CONTAINING COMPOUND, AND INTERMEDIATE, PREPARATION METHOD AND USE THEREOF” (HANGZHOU SYNRX THERAPEUTICS BIOMEDICAL TECHNOLOGY CO., LTD., priority 2022, published 2026)
Like-named read-outs stand apart in the source and are kept apart here.

How the values were obtained:
PARG = PARG (Homo sapiens, UniProt Q86W56); test: Biochemical assay (PARG, TFMU-ADPr substrate)
[1] = system: Human breast squamous carcinoma cells HCC1806; test: Cell function assay (In-Cell Western, PAR/pADPr after MMS); format: cell-based; details: read-out: IC50 (nM) in cell function assay
Protocol: 2. Cell Function Assay (In-Cell Western)
• 1) Human breast squamous carcinoma cells HCC1806 (ATCC) were seeded to the 384-well plate (Corning, #3764) at 20,000 cells/well, incubated for 24 h in a CO2 (5%) incubator at 37° C. to allow for complete adherence of the cells; • 2) 120 nL compounds or DMSO were added to the 384-well plate by Echo 550 (LABCYTE, #550) (final concentrations of compounds: 30000 nM, 10000 nM, 3000 nM, 1000 nM, 300 nM, 100 nM, 30 nM, 10 nM, 3 nM, 1 nM, 0 nM), and then the cells were incubated for 1 h in a CO2 (5%) incubator at 37° C.; • 3) 40 nL MMS (methyl mesylate, Sigma, #129925)(final concentration: 0.5 mM) was added to the plate by Echo 550, and the cells were treated for 1 h in a CO2 (5%) incubator at 37° C.

[2] = 4 nM PARG, 66.2 uM TFMU-ADPr, 3 min at room temperature
[3] = HCC1806, In-Cell Western, MMS treatment
[4] = HCC1806, compound 1 h then 0.5 mM MMS 1 h, PAR/pADPr antibody, In-Cell Western

PARG, sequence (Q86W56 whole entry): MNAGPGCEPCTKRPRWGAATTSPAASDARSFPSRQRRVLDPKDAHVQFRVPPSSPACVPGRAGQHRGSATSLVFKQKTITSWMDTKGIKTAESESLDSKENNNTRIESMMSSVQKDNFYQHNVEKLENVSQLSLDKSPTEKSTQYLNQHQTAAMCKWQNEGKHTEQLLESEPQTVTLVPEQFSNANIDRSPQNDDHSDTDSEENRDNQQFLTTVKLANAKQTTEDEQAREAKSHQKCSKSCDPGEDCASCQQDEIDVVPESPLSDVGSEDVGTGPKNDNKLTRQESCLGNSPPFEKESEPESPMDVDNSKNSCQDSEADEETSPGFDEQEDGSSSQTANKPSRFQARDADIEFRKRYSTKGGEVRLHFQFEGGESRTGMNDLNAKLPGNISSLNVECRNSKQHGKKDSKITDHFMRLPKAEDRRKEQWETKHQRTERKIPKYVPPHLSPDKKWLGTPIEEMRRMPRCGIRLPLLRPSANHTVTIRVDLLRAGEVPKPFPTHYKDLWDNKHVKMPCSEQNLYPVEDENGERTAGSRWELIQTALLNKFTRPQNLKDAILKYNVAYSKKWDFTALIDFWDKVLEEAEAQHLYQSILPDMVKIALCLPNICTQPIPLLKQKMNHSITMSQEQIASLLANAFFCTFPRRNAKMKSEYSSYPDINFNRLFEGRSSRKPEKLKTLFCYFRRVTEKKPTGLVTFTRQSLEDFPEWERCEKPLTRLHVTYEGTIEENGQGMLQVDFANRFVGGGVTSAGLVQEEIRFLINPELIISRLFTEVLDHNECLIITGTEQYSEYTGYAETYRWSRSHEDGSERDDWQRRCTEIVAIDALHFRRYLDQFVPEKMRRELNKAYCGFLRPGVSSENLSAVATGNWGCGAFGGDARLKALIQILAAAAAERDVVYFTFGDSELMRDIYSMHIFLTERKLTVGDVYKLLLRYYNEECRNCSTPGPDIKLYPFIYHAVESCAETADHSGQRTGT

SMILES	IC50 (PARG; [2]) [nM]	IC50 (PARG; PARG, TFMU-ADPr substrate) [nM]	IC50 [1, 3] [nM]	IC50 [1, 4] [nM]
CC(C)C(=O)N1CCN(c2cc(S(=O)(=O)NC3(C(F)F)CC3)cn3c(-c4nnc(C(F)F)s4)ncc23)CC1 [Example 33, 3-(5-(difluoromethyl)-1,3,4-thiadiazol-2-yl)-N-(1-(difluoromethyl)cyclopropyl)-8-(4-isobutyrylpiperazin-1-yl)imidazo[1,5-a]pyridine-6-sulfonamide]	< 100	6.52	155	100 to 500
N#CC1(NS(=O)(=O)c2cc(N3CCC4(CC3)COC4)c3cnc(-c4nnc(C(F)F)s4)n3c2)CC1 [Example 39, N-(1-cyanocyclopropyl)-3-(5-(difluoromethyl)-1,3,4-thiadiazol-2-yl)-8-(2-oxa-7-azaspiro[3.5]nonan-7-yl)imidazo[1,5-a]pyridine-6-sulfonamide]	< 100	2.72	13.2	< 100
N#CC1(NS(=O)(=O)c2cc(N3CCC(F)(F)CC3)c3cnc(-c4nnc(C(F)F)s4)n3c2)CC1 [Example 40, N-(1-cyanocyclopropyl)-3-(5-(difluoromethyl)-1,3,4-thiadiazol-2-yl)-8-(4,4-difluoropiperidin-1-yl)imidazo[1,5-a]pyridine-6-sulfonamide]	< 100	8.37	309	100 to 500
CC1(O)CC2(CCN(c3cc(S(=O)(=O)NC4(C#N)CC4)cn4c(-c5nnc(C(F)F)s5)ncc34)CC2)C1 [Example 53, N-(1-cyanocyclopropyl)-3-(5-(difluoromethyl)-1,3,4-thiadiazol-2-yl)-8-(2-hydroxy-2-methyl-7-azaspiro[3.5]nonan-7-yl)imidazo[1,5-a]pyridine-6-sulfonamide]	< 100	2.37	145	100 to 500
C[C@@H]1CN(c2cc(S(=O)(=O)NC3(C#N)CC3)cn3c(-c4nnc(C(F)F)s4)ncc23)CCN1C(=O)C1(C)CC1 [Example 62, (R)-N-(1-cyanocyclopropyl)-3-(5-(difluoromethyl)-1,3,4-thiadiazol-2-yl)-8-(3-methyl-4-(1-methylcyclopropane-1-carbonyl)piperazin-1-yl)imidazo[1,5-a]pyridine-6-sulfonamide]	< 100	3.75	3.52	< 100
C[C@@H]1CN(c2cc(S(=O)(=O)NC3(CF)CC3)cn3c(-c4nnc(C(F)F)s4)ncc23)CCN1C(=O)C1(C)CC1 [Example 63, (R)-3-(5-(difluoromethyl)-1,3,4-thiadiazol-2-yl)-N-(1-(fluoromethyl)cyclopropyl)-8-(3-methyl-4-(1-methylcyclopropane-1-carbonyl)piperazin-1-yl)imidazo[1,5-a]pyridine-6-sulfonamide]	< 100	2.12	1.36	< 100
CC(C)(F)C(=O)N1CCN(c2cc(S(=O)(=O)NC3(C#N)CC3)cn3c(-c4nnc(C(F)F)s4)ncc23)CC1 [Example 64, N-(1-cyanocyclopropyl)-3-(5-(difluoromethyl)-1,3,4-thiadiazol-2-yl)-8-(4-(2-fluoro-2-methylpropanoyl)piperazin-1-yl)imidazo[1,5-a]pyridine-6-sulfonamide]	< 100	3.44	6.92	< 100
N#CC1(NS(=O)(=O)c2cc(N3CCC(CO)CC3)c3cnc(-c4nnc(C(F)F)s4)n3c2)CC1 [Example 66, N-(1-cyanocyclopropyl)-3-(5-(difluoromethyl)-1,3,4-thiadiazol-2-yl)-8-(4-(hydroxymethyl)piperidin-1-yl)imidazo[1,5-a]pyridine-6-sulfonamide]	< 100	2.89	18.2	< 100
N#CC1(NS(=O)(=O)c2cc(N3CCOCC3)c3cnc(-c4nnc(C(F)F)s4)n3c2)CC1 [Example 67, N-(1-cyanocyclopropyl)-3-(5-(difluoromethyl)-1,3,4-thiadiazol-2-yl)-8-morpholinoimidazo[1,5-a]pyridine-6-sulfonamide]	< 100	8.83	40.1	< 100
N#CC1(NS(=O)(=O)c2cc(N3CCC(O)CC3)c3cnc(-c4nnc(C(F)F)s4)n3c2)CC1 [Example 68, N-(1-cyanocyclopropyl)-3-(5-(difluoromethyl)-1,3,4-thiadiazol-2-yl)-8-(4-hydroxypiperidin-1-yl)imidazo[1,5-a]pyridine-6-sulfonamide]	< 100	25.1	34.7	< 100
C[C@@H]1CN(c2cc(S(=O)(=O)NC3(C)CC3)cn3c(-c4nnc(C(F)F)s4)ncc23)CCN1C(=O)C1(C)CC1 [Example 71, (R)-3-(5-(difluoromethyl)-1,3,4-thiadiazol-2-yl)-8-(3-methyl-4-(1-methylcyclopropane-1-carbonyl)piperazin-1-yl)-N-(1-methylcyclopropyl)imidazo[1,5-a]pyridine-6-sulfonamide]	< 100	1.32	0.67	< 100
CC(C)C(=O)N1CCN(c2cc(S(=O)(=O)NC3(C#N)CC3)cn3c(-c4nnc(C(F)F)s4)ncc23)C[C@H]1C [Example 74, (R)-N-(1-cyanocyclopropyl)-3-(5-(difluoromethyl)-1,3,4-thiadiazol-2-yl)-8-(4-isobutyryl-3-methylpiperazin-1-yl)imidazo[1,5-a]pyridine-6-sulfonamide]	< 100	6.61	1.5	< 100
C[C@@H]1CN(c2cc(S(=O)(=O)NC3(C#N)CC3)cn3c(-c4nnc(C(F)F)s4)ncc23)CCN1C(=O)C1(F)CC1 [Example 77, (R)-N-(1-cyanocyclopropyl)-3-(5-(difluoromethyl)-1,3,4-thiadiazol-2-yl)-8-(4-(1-fluorocyclopropane-1-carbonyl)-3-methylpiperazin-1-yl)imidazo[1,5-a]pyridine-6-sulfonamide]	< 100	24	14.8	< 100
CC(C)C(=O)N1CCN(c2cc(S(=O)(=O)NC3(C#N)CC3)cn3c(-c4nnc(C(F)F)s4)ncc23)C[C@@H]1C [Example 85, (S)-N-(1-cyanocyclopropyl)-3-(5-(difluoromethyl)-1,3,4-thiadiazol-2-yl)-8-(4-isobutyryl-3-methylpiperazin-1-yl)imidazo[1,5-a]pyridine-6-sulfonamide]	< 100	15.2	13.7	< 100
C[C@H]1CN(c2cc(S(=O)(=O)NC3(C#N)CC3)cn3c(-c4nnc(C(F)F)s4)ncc23)CCN1C(=O)C1(C)CC1 [Example 86, (S)-N-(1-cyanocyclopropyl)-3-(5-(difluoromethyl)-1,3,4-thiadiazol-2-yl)-8-(3-methyl-4-(1-methylcyclopropane-1-carbonyl)piperazin-1-yl)imidazo[1,5-a]pyridine-6-sulfonamide]	< 100	16.6	11.4	< 100
CC1(C(=O)N2C3CC2CN(c2cc(S(=O)(=O)NC4(C#N)CC4)cn4c(-c5nnc(C(F)F)s5)ncc24)C3)CC1 [Example 87, N-(1-cyanocyclopropyl)-3-(5-(difluoromethyl)-1,3,4-thiadiazol-2-yl)-8-(6-(1-methylcyclopropane-1-carbonyl)-3,6-diazabicyclo[3.1.1]heptan-3-yl)imidazo[1,5-a]pyridine-6-sulfonamide]	< 100	7.24	49.9	< 100
C[C@@H]1CN(c2cc(S(=O)(=O)NC3(C)COC3)cn3c(-c4nnc(C(F)F)s4)ncc23)CCN1C(=O)C1(C)CC1 [Example 88, (R)-3-(5-(difluoromethyl)-1,3,4-thiadiazol-2-yl)-8-(3-methyl-4-(1-methylcyclopropane-1-carbonyl)piperazin-1-yl)-N-(3-methyloxetan-3-yl)imidazo[1,5-a]pyridine-6-sulfonamide]	< 100	8.69	6.77	< 100
CC(C)[C@@H]1CN(c2cc(S(=O)(=O)NC3(C#N)CC3)cn3c(-c4nnc(C(F)F)s4)ncc23)CCN1C(=O)C1(C)CC1 [Example 96, (R)-N-(1-cyanocyclopropyl)-3-(5-(difluoromethyl)-1,3,4-thiadiazol-2-yl)-8-(3-isopropyl-4-(1-methylcyclopropane-1-carbonyl)piperazin-1-yl)imidazo[1,5-a]pyridine-6-sulfonamide]	< 100	2.09	1.68	< 100
CC(C)C[C@@H]1CN(c2cc(S(=O)(=O)NC3(C#N)CC3)cn3c(-c4nnc(C(F)F)s4)ncc23)CCN1C(=O)C1(C)CC1 [Example 97, (R)-N-(1-cyanocyclopropyl)-3-(5-(difluoromethyl)-1,3,4-thiadiazol-2-yl)-8-(3-isobutyl-4-(1-methylcyclopropane-1-carbonyl)piperazin-1-yl)imidazo[1,5-a]pyridine-6-sulfonamide]	< 100	5.01	7.52	< 100
